# Laboratory results: patent US11919905B2, “Substituted benzo[f]imidazo[1,2-a][1,4]diazepines as anesthetics” (HANGZHOU ADAMERCK PHARMLABS INC., priority 2017, dated 2024)
# Tests used:
# [1] = system: ICR mice; experiment: Disappearance of righting reflex in mice induced by drugs (single i.v. bolus); format: in vivo; conditions: 100 mg/kg single bolus via tail vein, male ICR mice
# Procedure: After ICR mice (male, 18-25 g) were fast injected with the same dose (100 mg/kg) of the test drug in a single bolus via the tail vein, the incubation period and the duration of disappearance of the righting reflex in mice were recorded. Wherein, the incubation period refers to the time from the start of administration to the disappearance of the animal's righting reflex, and the duration refers to the time from the disappearance of the righting reflex to the recovery.
# [2] = system: ICR mice; experiment: Effective dose and lethal dose of intravenous administration in mice; format: in vivo
# Procedure: ICR mice (males, 18-25 g) were randomly grouped and were fast given a single bolus of different doses of test drug via the tail vein, and the lowest dose causing the righting reflex to disappear (effective dose) and the dose causing animal death (lethal dose) were recorded, and the treatment windows (lethal dose/effective dose) were calculated.
# [3] = system: mice; experiment: Multiple (9 times) i.v. administrations: duration of disappearance of righting reflex in mice; format: in vivo
# Procedure: Animals in each group were given the corresponding drug solution multiple times by the tail vein injection (i.v.) in accordance with the corresponding group, 0.1 ml per mouse each time, for 9 times of consecutive injections (the administration group mice were injected when the righting reflex was recovered). The durations of each disappearance of righting reflex were recorded, and the data was expressed as an average.
# [4] = system: mice; experiment: Single i.v. administration: autonomous activity of mice; format: in vivo
# Procedure: Animals in each group were tested for their autonomous activities, each mouse for 10 minutes. After that, the animals in each group were given a single corresponding drug solution by the tail vein injection (i.v.) according to the corresponding group, 0.1 ml per 10 g body weight, and the autonomous activity of the mice was measured immediately after the administration, and the recording time was 50 min. Data were expressed as mean±standard deviation. Wherein, the dosage of propofol was 20 mg/kg.
# [5] = system: mice; experiment: Multiple (10 times) i.v. administrations: autonomous activity of mice; format: in vivo
# Procedure: Animals in each group were given the corresponding drug solution multiple times by the tail vein injection (i.v.) in accordance with the corresponding group, 0.1 ml per mouse each time, for ten times of consecutive injections (the administration group mice were injected when the righting reflex was recovered). Then the autonomous activity of mice was measured immediately and the recording time was 50 minutes. Data were expressed as mean±standard deviation.
# [6] = background statement; cited from earlier work
# [7] = single bolus via tail vein, male ICR mice
# [8] = 50 mg/kg i.v., administration 1
# [9] = 50 mg/kg i.v., administration 2
# [10] = 50 mg/kg i.v., administration 3
# [11] = 50 mg/kg i.v., administration 4
# [12] = 50 mg/kg i.v., administration 5
# [13] = 50 mg/kg i.v., administration 6
# [14] = 50 mg/kg i.v., administration 7
# [15] = 50 mg/kg i.v., administration 8
# [16] = 50 mg/kg i.v., administration 9
# [17] = 75 mg/kg i.v., administration 1
# [18] = 75 mg/kg i.v., administration 2
# [19] = 75 mg/kg i.v., administration 3
# [20] = 75 mg/kg i.v., administration 4
# [21] = 75 mg/kg i.v., administration 5
# [22] = 75 mg/kg i.v., administration 6
# [23] = 75 mg/kg i.v., administration 7
# [24] = 75 mg/kg i.v., administration 8
# [25] = 75 mg/kg i.v., administration 9
# [26] = 100 mg/kg i.v., administration 1
# [27] = 100 mg/kg i.v., administration 2
# [28] = 100 mg/kg i.v., administration 3
# [29] = 100 mg/kg i.v., administration 4
# [30] = 100 mg/kg i.v., administration 5
# [31] = 100 mg/kg i.v., administration 6
# [32] = 100 mg/kg i.v., administration 7
# [33] = 100 mg/kg i.v., administration 8
# [34] = 100 mg/kg i.v., administration 9
smiles,measurement,setting,value
COC(=O)CC[C@@H]1N=C(c2ccccn2)c2cc(F)c(C)cc2-n2c(C)cnc21.Cc1ccc(S(=O)(=O)O)cc1 [Compound 1-2],Duration (time from disappearance of righting reflex to recovery),[1],6.02 min
same,Incubation period (time from start of administration to disappearance of righting reflex),[1],0.52 min
same,minimal effective dose,"[2]; Mus musculus, iv, single bolus via tail vein, male ICR mice, read-out: Effective dose (lowest dose causing the righting reflex to disappear)",40 mg/kg
same,"effective dose reduced, compared to remimazolam (p-toluenesulfonate)","[2]; mice, i.v.",33.3%
same,"lethal dose increased, compared to remimazolam (p-toluenesulfonate)","[2]; mice, i.v.",64%
same,"treatment window increased, compared to remimazolam (p-toluenesulfonate)","[2]; mice, i.v.",2.5 times
same,Lethal dose (dose causing animal death),[2]; [7],360 mg/kg
same,Treatment window (lethal dose/effective dose),[2]; [7],9
same,Percentage of extension of righting reflex disappearance,[3]; [8],100%
same,righting reflex disappearance time,[3]; [8],2.5 min
same,Percentage of extension of righting reflex disappearance,[3]; [9],179%
same,righting reflex disappearance time,[3]; [9],4.4 min
same,Percentage of extension of righting reflex disappearance,[3]; [10],192%
same,righting reflex disappearance time,[3]; [10],4.8 min
same,Percentage of extension of righting reflex disappearance,[3]; [11],227%
same,righting reflex disappearance time,[3]; [11],5.6 min
same,Percentage of extension of righting reflex disappearance,[3]; [12],237%
same,righting reflex disappearance time,[3]; [12],5.9 min
same,Percentage of extension of righting reflex disappearance,[3]; [13],208%
same,righting reflex disappearance time,[3]; [13],5.2 min
same,Percentage of extension of righting reflex disappearance,[3]; [14],268%
same,righting reflex disappearance time,[3]; [14],6.6 min
same,Percentage of extension of righting reflex disappearance,[3]; [15],260%
same,righting reflex disappearance time,[3]; [15],6.5 min
same,Percentage of extension of righting reflex disappearance,[3]; [16],268%
same,righting reflex disappearance time,[3]; [16],6.6 min
same,disappearance time of righting reflex as share of that of the propofol group,"[3]; 75 mg/kg dose group, after 6-7 administrations, vs propofol 20 mg/kg",65-70%
same,Percentage of extension of righting reflex disappearance,[3]; [17],100%
same,righting reflex disappearance time,[3]; [17],5.3 min
same,Percentage of extension of righting reflex disappearance,[3]; [18],128%
same,righting reflex disappearance time,[3]; [18],6.7 min
same,Percentage of extension of righting reflex disappearance,[3]; [19],159%
same,righting reflex disappearance time,[3]; [19],8.4 min
same,Percentage of extension of righting reflex disappearance,[3]; [20],173%
same,righting reflex disappearance time,[3]; [20],9.1 min
same,Percentage of extension of righting reflex disappearance,[3]; [21],194%
same,righting reflex disappearance time,[3]; [21],10.2 min
same,Percentage of extension of righting reflex disappearance,[3]; [22],219%
same,righting reflex disappearance time,[3]; [22],11.5 min
same,Percentage of extension of righting reflex disappearance,[3]; [23],231%
same,righting reflex disappearance time,[3]; [23],12.1 min
same,Percentage of extension of righting reflex disappearance,[3]; [24],211%
same,righting reflex disappearance time,[3]; [24],11.1 min
same,Percentage of extension of righting reflex disappearance,[3]; [25],211%
same,righting reflex disappearance time,[3]; [25],11.1 min
same,Percentage of extension of righting reflex disappearance,[3]; [26],100%
same,righting reflex disappearance time,[3]; [26],8.9 min
same,Percentage of extension of righting reflex disappearance,[3]; [27],121%
same,righting reflex disappearance time,[3]; [27],10.8 min
same,Percentage of extension of righting reflex disappearance,[3]; [28],154%
same,righting reflex disappearance time,[3]; [28],13.8 min
same,Percentage of extension of righting reflex disappearance,[3]; [29],177%
same,righting reflex disappearance time,[3]; [29],15.8 min
same,Percentage of extension of righting reflex disappearance,[3]; [30],181%
same,righting reflex disappearance time,[3]; [30],16.2 min
same,Percentage of extension of righting reflex disappearance,[3]; [31],240%
same,righting reflex disappearance time,[3]; [31],21.5 min
same,Percentage of extension of righting reflex disappearance,[3]; [32],234%
same,righting reflex disappearance time,[3]; [32],20.9 min
same,Percentage of extension of righting reflex disappearance,[3]; [33],238%
same,righting reflex disappearance time,[3]; [33],21.2 min
same,Percentage of extension of righting reflex disappearance,[3]; [34],236%
same,righting reflex disappearance time,[3]; [34],21.1 min
same,accumulation effect (prolonged rate of righting reflex disappearance time after multiple administrations),[3]; each dose group vs propofol group,lower than that of propofol
same,dose dependence of duration of righting reflex disappearance,"[3]; i.v., 50-100 mg/kg",dose-dependent
same,number of consecutive administrations after which duration of righting reflex disappearance reached steady state,"[3]; repeated i.v. administration, each dose group",5-6
same,time after administration until autonomous activity returned to normal level,[4]; single i.v. 50 mg/kg (low-dose group),15 min
same,total distance of autonomous activity compared with blank group,"[4]; single i.v. 50 mg/kg-100 mg/kg, within 10 minutes of injection",significantly lower than that of the blank group
same,time after administration until autonomous activity returned to normal level,[4]; single i.v. 75 mg/kg (medium-dose group),35 min
same,autonomous activity compared with blank group,"[4]; single i.v. 100 mg/kg (high-dose group), 50 min test period",consistently lower than that of the blank group during the test period
same,time after administration until autonomous activity returned to normal levels,"[5]; 10 consecutive i.v. injections, 50 mg/kg",15 to 20 min
same,return of autonomous activity to normal levels,"[5]; 10 consecutive i.v. injections, 100 mg/kg, test period 50 minutes",did not return to normal levels during the test period
same,recovery of the number of autonomous activities and the rest time after multiple administrations,"[5]; multiple i.v. administrations, vs propofol",better than that of propofol
"COC(=O)CC[C@@H]1N=C(c2ccccn2)c2cc(Br)ccc2-n2c(C)cnc21.O=S(=O)(O)c1ccccc1 [Remimazolam (besylate), Remimazolam, reference compound]",Duration (time from disappearance of righting reflex to recovery),[1],10.61 min
same,Incubation period (time from start of administration to disappearance of righting reflex),[1],0.64 min
same,Effective dose (lowest dose causing the righting reflex to disappear),[2]; [7],60 mg/kg
same,Lethal dose (dose causing animal death),[2]; [7],280 mg/kg
same,Treatment window (lethal dose/effective dose),[2]; [7],4.6
same,side effects in preclinical animal experiments,[6],"limb jitters, head tilting, opisthotonus"
"COC(=O)CC[C@@H]1N=C(c2ccccn2)c2cc(Br)ccc2-n2c(C)cnc21.Cc1ccc(S(=O)(=O)O)cc1 [Remimazolam (p-toluenesulfonate), Remimazolam, reference compound]",Duration (time from disappearance of righting reflex to recovery),[1],9.43 min
same,Incubation period (time from start of administration to disappearance of righting reflex),[1],0.73 min
same,Effective dose (lowest dose causing the righting reflex to disappear),[2]; [7],60 mg/kg
same,Lethal dose (dose causing animal death),[2]; [7],220 mg/kg
same,Treatment window (lethal dose/effective dose),[2]; [7],3.6
same,side effects in preclinical animal experiments,[6],"limb jitters, head tilting, opisthotonus"
